Test results: patent US8470340B2, “Peptides presenting an epitope of a domain of factor H binding protein and methods of use” (priority 2008, dated 2013)
Ends that are not written are not given here.

B1: D25A: recombinant v.1 fHbp (gene from MC58) with residue 25 changed to alanine (protein)
chain: CSSGGGGVAADIGAGLADALTAPLAHKDKGLQSLTLDQSVRKNEKLKLAAQGAEKTYGNGDSLNTGKLKNDKVSRFDFIRQIEVDGQLITLESGEFQVYKQSHSALTAFQTEQIQDSEHSGKMVAKRQFRIGDIAGEHTSFDKLPEGGRATYRGTAFGSDDAGGKLTYTIDFAAKQGNGKIEHLKSPELNVDLAAADIKPDGKRHAVISGSVLYNQAEKGSYSLGIFGGKAQEVAGSAEVKTVNGIRHIGLAAKQHHHHHH

Experiments:
JAR4 mAb [1] = test: […] of phage library clones; type: binding, murine; settings: JAR4 coated at 1 μg/ml, cleared phage supernatant, absorbance at 450 nm
Method: […]—Aliquots in 96 wells ELISA plates 100 μl per well of JAR4 mAb were diluted (1 μg/ml) in 50 mM NaHC03, 0.02% (w/v) NaN3, pH 9.6 and incubated 3 hrs at 37° C. or overnight at 4° C. After washing 8 times with 1×PBS containing 0.05% (v/v) TWEEN 20), 200 μl of blocking buffer (PBS, 0.05% TWEEN 20, 5% non-fat dry milk) was added and incubated for 1 hr at 37° C. The wash was discarded and a mixture of 100 μl cleared phage supernatant and 100 μl blocking buffer was added, to the plate and incubated for 3 hrs at 37° C. or overnight at 4° C. After washing 8 times with 1×PBS containing 0.05% (v/v) TWEEN 20), and anti-M13 peroxidase conjugate antibody (Amersham Biosciences, Buckinghamshire, UK) was added at a dilution of […] in blocking buffer (100 μl/well) and incubated for 1 h at 37° C. After further washing, antibody binding was detected by adding TMB substrate, incubated for 45 min at room temperature and stopped with […] of 1 M H2SO4 and reading absorbance at 450 nm.
(§1) In order to identify peptides useful in eliciting antibodies having the eptitope-binding properties of the JAR 4 mAb, libraries of filamentous bacteriophage containing random peptides (9-mers and 12-mers) fused to protein VIII were screened using the JAR 4 mAb as described above. Phage eluted in the final step were used to infect host bacteria, from which the phagemids were collected and the relevant DNA sequence amplified by PCR and sequenced to identify the peptides that interacted with JAR 4 mAb. The relative binding affinity of the peptide of the isolated phage was determined by both […] and […], as described above.

JAR4 mAb [2] = test: […] of phage library clones; type: binding, murine; settings: phage captured by anti-pIII mAb, JAR4 detection, absorbance at 405 nm
Method: —Ninety-six wells plates were coated o.n. at 4° C. with 100 μl per well of a rat anti-pili (coat protein III) monoclonal antibody (concentration 1 mg/ml) in 50 mM NaHC03, 0.02% (w/v) NaN3, pH 9.6, and washed 8 times with TBST (50 mM Tris/Cl, 150 mM NaCl, pH 7.5, 0.05% (v/v) TWEEN 20). One hundred μl per well of cleared phage supernatant was added. After washing as above and incubation with antibody (concentration 1 mg/ml) in blocking buffer (5% (w/v) non-fat dry milk, 0.05% TWEEN 20 in PBS), and washing, the binding of the monoclonal antibody was detected by alkaline-phosphatase conjugated goat anti-mouse IgG antibody (Sigma, dilution 1:5000) using p-nitrophenyl phosphate substrate tablets (Sigma).
as §1

anti-fHbp JAR 5 = test: Direct binding ELISA of mAb to KLH-conjugated peptides; design: species or system murine; settings: for mAb Reactivity JAR 5: KLH-conjugated peptide coated at 2 μg/ml; for binding to control mAb anti-fHbp JAR 5: KLH-conjugated peptides, in words
Method: (§2) The ability of anti-fHbp mAb JAR 4 to bind to the KLH-conjugated peptides was determined by a direct binding ELISA. ELISA plates were coated with 100 μl per well of a 2 μg/ml (peptide concentration) solution at 4° C. overnight. The following morning, the plates were washed and then blocked with PBS containing 1% BSA. The plates were washed and incubated with serial dilutions of mAb JAR 4 or, as a control, anti-fHbp JAR 5 or anti-PorA P1.2 mAb. After incubation (1 hour at room temperature), the plates were washed and incubated with anti-mouse IgG conjugated either with alkaline phosphatase or IRDye 800CW (1:1000). The alkaline phosphatase was detected at 420 nm wavelength after 30 min incubation with phosphatase substrate (1 mg/ml) and the IRDye was detected at 800 nm wavelength.

anti-fHbp mAb JAR 4 = test: as above; design: species or system murine; settings: for mAb Reactivity JAR 4: KLH-conjugated peptide coated at 2 μg/ml; for reactivity with JAR 4 by ELISA: KLH-conjugated peptides, in words
Method: as §2

anti-PorA P1.2 mAb = test: as above; settings: KLH-conjugated peptide coated at 2 μg/ml
Method: as §2

JAR 4 = test: ELISA binding of mAb to site-specific mutant recombinant v.1 fHbp; design: species or system murine; settings: v.1 fHbp (gene from MC58) alanine mutants
Method: Site-specific mutagenesis was used to test the role of amino acid residues involved in the JAR 4 anti-fHbp mAb epitope. Mutagenesis was performed using the QuikChange II kit (Stratagene) using 10 ng of plasmid template and the manufacturer's protocols. For testing residues putatively involved in mAb epitopes, mutagenesis reactions were performed on pET21-based plasmids encoding a wild-type fHbp gene. Site-specific mutagenesis was used to introduce the H26A and K27A substitution into the pET21 plasmid encoding v.1 fHbp from MC58. Mutant fHbp genes were confirmed by DNA sequencing as described for the wild-type plasmids, above.
Site-directed mutagenesis of residues 25, 26 and 27 was performed, each of which was individually changed to alanine in fHbp from the v.1 group (gene from MC58). These mutants were created using the non-signal containing sequence from strain MC58 (MVAAD . . . GLAAKQ) (SEQ ID NO:73), and are referred to as D25A, H26A and K27A, respectively. The amino acid sequences of the portions of the A domains of these mutants is provided in FIG. 7, Panel A. Results of the binding experiment between mutated fHbp and the various JAR mAbs are shown in FIG. 6.

Molecule	PHAGELISA (JAR4 mAb [1])	SEPHELISA (JAR4 mAb [2])	other results
6 (FHDHKTANQ) [Clone 6]	+ (O.D. from 0.15 to 0.5)	++ (O.D. from 0.5 to 1)	
8 (HDHRIWPLDVTA) [Clone 8]	+ (O.D. from 0.15 to 0.5)	++ (O.D. from 0.5 to 1)	
AEGEFHDHKLEGTEDPAKC (also: conjugated to KLH) [JAR 4 Phage 3, synthetic peptide conjugated to keyhole limpet hemocyanin (KLH)]			mAb Reactivity JAR 5 (anti-fHbp JAR 5): − (no detectable binding at 50 μg/ml); binding to control mAb anti-fHbp JAR 5 (anti-fHbp JAR 5): no detectable binding; mAb Reactivity JAR 4 (anti-fHbp mAb JAR 4): + (50% of maximal binding at 1-10 μg/ml); reactivity with JAR 4 by ELISA (anti-fHbp mAb JAR 4): reacted
AEGEFHDHKTQLDPDPAKC (also: conjugated to KLH) [JAR 4 Phage 1, synthetic peptide conjugated to keyhole limpet hemocyanin (KLH)]			mAb Reactivity JAR 5 (anti-fHbp JAR 5): − (no detectable binding at 50 μg/ml); binding to control mAb anti-fHbp JAR 5 (anti-fHbp JAR 5): no detectable binding; mAb Reactivity JAR 4 (anti-fHbp mAb JAR 4): ++ (50% of maximal binding at < 1 μg/ml); reactivity with JAR 4 by ELISA (anti-fHbp mAb JAR 4): reacted; mAb Reactivity P1.2 (anti-PorA P1.2 mAb): − (no detectable binding at 50 μg/ml)
AEGEFWTLAVFDHKAQTGDPAKC (also: conjugated to KLH) [JAR 4 Phage 2, synthetic peptide conjugated to keyhole limpet hemocyanin (KLH)]			mAb Reactivity JAR 4 (anti-fHbp mAb JAR 4): ++ (50% of maximal binding at < 1 μg/ml); reactivity with JAR 4 by ELISA (anti-fHbp mAb JAR 4): reacted; mAb Reactivity P1.2 (anti-PorA P1.2 mAb): − (no detectable binding at 50 μg/ml)
18 (VGWCGFERCSSA) [Clone 18]	+ (O.D. from 0.15 to 0.5)	+ (O.D. from 0.15 to 0.5)	
10 (HVHRGSQGGQRQ) [Clone 10]	+ (O.D. from 0.15 to 0.5)	+ (O.D. from 0.15 to 0.5)	
7 (WRWCGFERCPEG) [Clone 7]	+ (O.D. from 0.15 to 0.5)	++ (O.D. from 0.5 to 1)	
9 (NDERQMSDWYRA) [Clone 9]	+ (O.D. from 0.15 to 0.5)	+ (O.D. from 0.15 to 0.5)	
15 (RCQVQVMVLCAL) [Clone 15]	+ (O.D. from 0.15 to 0.5)	+ (O.D. from 0.15 to 0.5)	
3 (HDHKTQLDP) [Clone 3]	++++ (O.D. from 2 to 3.5)	++++ (O.D. from 2 to 3.5)	
2 (CGGVYDDKTGCA) [Clone 2]	++ (O.D. from 0.5 to 1)	++++ (O.D. from 2 to 3.5)	
12 (KDHRHMLWPEES) [Clone 12]	+ (O.D. from 0.15 to 0.5)	+ (O.D. from 0.15 to 0.5)	
4 (WTLAVFDHKAQT) [Clone 4]	+++ (O.D. from 1 to 2)	+++ (O.D. from 1 to 2)	
ALTAPLDHKDKGLQSDPAKC (also: conjugated to KLH) [JAR 4 Native, reference compound]			mAb Reactivity JAR 5 (anti-fHbp JAR 5): − (no detectable binding at 50 μg/ml); mAb Reactivity JAR 4 (anti-fHbp mAb JAR 4): − (no detectable binding at 50 μg/ml)
AQAFQTPVHSDPAKC (also: conjugated to KLH) [GNA 33, control peptide, a mimetic of PorA P1.2, conjugated to KLH, reference compound]			mAb Reactivity JAR 4 (anti-fHbp mAb JAR 4): − (no detectable binding at 50 μg/ml); mAb Reactivity P1.2 (anti-PorA P1.2 mAb): + (50% of maximal binding at 1-10 μg/ml)
5 (GCMGYDHRSGCV) [Clone 5]	+ (O.D. from 0.15 to 0.5)	++ (O.D. from 0.5 to 1)	
16 (HDHKHGFQEPAS) [Clone 16]	+ (O.D. from 0.15 to 0.5)	+ (O.D. from 0.15 to 0.5)	
11 (LEWCGFSRCEVG) [Clone 11]	+ (O.D. from 0.15 to 0.5)	+ (O.D. from 0.15 to 0.5)	
14 (WVLCGQGCGGTA) [Clone 14]	+ (O.D. from 0.15 to 0.5)	+ (O.D. from 0.15 to 0.5)	
HFVQQTPQSQDPAKC (also: conjugated to KLH) [PorA P1.2, control peptide derived from loop 4 of PorA VR2, strain 2996, conjugated to KLH, reference compound]			mAb Reactivity JAR 4 (anti-fHbp mAb JAR 4): − (no detectable binding at 50 μg/ml); mAb Reactivity P1.2 (anti-PorA P1.2 mAb): + (50% of maximal binding at 1-10 μg/ml)
13 (LCQERLSQRCGV) [Clone 13]	+ (O.D. from 0.15 to 0.5)	+ (O.D. from 0.15 to 0.5)	
17 (SDWGWGGRAEQH) [Clone 17]	+ (O.D. from 0.15 to 0.5)	+ (O.D. from 0.15 to 0.5)	
TKDDPLKQHLALSAGDPAKC (also: conjugated to KLH) [JAR 4 Scrambled, scrambled native fHbp peptide, negative control, conjugated to KLH, reference compound]			mAb Reactivity JAR 5 (anti-fHbp JAR 5): − (no detectable binding at 50 μg/ml); mAb Reactivity JAR 4 (anti-fHbp mAb JAR 4): − (no detectable binding at 50 μg/ml); mAb Reactivity P1.2 (anti-PorA P1.2 mAb): − (no detectable binding at 50 μg/ml)
1 (HDHKLEGTE) [Clone 1]	+++ (O.D. from 1 to 2)	++++ (O.D. from 2 to 3.5)	
B1			decrease in JAR 4-reactivity compared with wild-type recombinant fHbp (JAR 4): approximately 1000 fold
